pIC50, pKd: −log10 of the molar value.
Experiments:
Jurkat cell line = assay: PARP cellular chemopotentiation assay (MTS cell viability with and without TMZ); type: cell-based; conditions: ratio of EC50 for inhibition of cell viability without and with 100 μM TMZ; Jurkat cells, 96 hours of treatment
Summary of the method: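 Jurkat cells, 10,000/well, pre-cultured 24 h, then treated 96 h with serial compound dilutions (0.5% DMSO) with or without 100 μM TMZ. Viability by MTS conversion (OD490), normalized to DMSO controls; EC50 from curve fits, PF50 = EC50 without TMZ / EC50 with TMZ.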

[1] = biological target: T1, catalytic domain of Human PARP (Homo sapiens, UniProt P09874); assay: Biacore surface plasmon resonance affinity assay (dissociation constant KD); type: binding; conditions: pKD=-log(KD), KD in molar concentration; Biacore T100, 25° C.
T1 construct: The catalytic domain of Human PARP was cloned and prepared; made in house
Procedure: Dissociation Constant (KD) from Surface Plasmon Resonance
The catalytic domain of Human PARP was cloned and prepared as described in Kinoshita, T.; Nakanishi, I.; Warizaya, M.; Iwashita, A.; Kido, Y.; Hattori, K. and Fujii, T. 2006 FEBS Letters 556, 43-46. Purified enzyme was stored at −80° C. in 25 mM Tris(hydroxymethyl)aminomethane (Tris) pH 7.4, 150 mM NaCl, 2 mM dithiothreitol (DTT) at a concentration of 6 mg/ml.
Biacore affinity assays for test compounds were conducted on a Biacore T100 (GE Healthcare) as follows. A Series S Sensor Chip CM5 (part number BR-1006-68, GE Healthcare) was activated for amide coupling with an Amine Coupling Kit (part number BR-1000-50, GE Healthcare) as described by the manufacturer. The mobile phase buffer consisted of Biacore buffer HBS-P (part number BR-1003-68, GE Healthcare) supplemented with 1% v/v dimethylsulfoxide (DMSO), 0.5 mM Tris(2-carboxyethyl)phosphine hydrochloride (TCEP), and 5 mM MgCl2. Enzyme samples (2 μl/6 mg/ml) stored at −80° C. were diluted to 0.080 mg/ml with 10 mM 4-morpholineethanesulfonic acid (MES) pH 6.5 and then mounted on the activated Biacore CM5 chip at a flow rate of 10 μl/min for 240 seconds. When successfully mounted, a signal of approximately 8,000 reflective units was observed. Test compounds were diluted 9 times 2-fold serially in mobile phase buffer (listed above) at 1% v/v DMSO final to generate a concentration gradient bracketing their anticipated KDs. Biacore mounted PARP was given a 1 minute exposure (association phase) to various concentrations of test compounds to observe a steady state equilibrium or an on rate. The exposure was followed with a dissociation phase of 5 minutes. The association and dissociation phases were at a flow rate of 50 μl/min and a temperature of 25° C.
Parameters Rmax (response at saturation) and KD (binding constant) were calculated through a nonlinear least squares fitting of the equation to the data by use of the Biacore T100 analysis software.
Parameter optimization was through a nonlinear least squares analysis of the association phase Response=Rmax*(1−exp(−(kon[cmpd]+koff)*t)) and dissociation phase Response=[…] by use of the Biacore T100 analysis software. The binding constant KD was calculated from the definition KD=koff/kon

PARP = biological target: T2, PARP (Homo sapiens, UniProt P09874); assay: PARP ELISA colorimetric assay of inhibition of PARP catalytic activity (IC50); type: biochemical; conditions: pIC50=-log(IC50), IC50 in molar concentration; ELISA-based PARP kit, 10 minutes of catalysis
T2 construct: purchased Trevigen 4684-096-01 (enzyme); kit 4684-096-K HT
Summary of the method: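 Human PARP was added as a 0.1 nM solution to histone-coated wells with compound for a 10-min ambient preincubation. The reaction was started with 100 μM NAD+ solution plus activated DNA and run 10 min. PAR formation was detected by anti-PAR ELISA, colorimetric. IC50 came from a 12-point, 3-fold gradient fitted by nonlinear least squares to a Hill equation.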

T2 sequence (P09874 whole entry): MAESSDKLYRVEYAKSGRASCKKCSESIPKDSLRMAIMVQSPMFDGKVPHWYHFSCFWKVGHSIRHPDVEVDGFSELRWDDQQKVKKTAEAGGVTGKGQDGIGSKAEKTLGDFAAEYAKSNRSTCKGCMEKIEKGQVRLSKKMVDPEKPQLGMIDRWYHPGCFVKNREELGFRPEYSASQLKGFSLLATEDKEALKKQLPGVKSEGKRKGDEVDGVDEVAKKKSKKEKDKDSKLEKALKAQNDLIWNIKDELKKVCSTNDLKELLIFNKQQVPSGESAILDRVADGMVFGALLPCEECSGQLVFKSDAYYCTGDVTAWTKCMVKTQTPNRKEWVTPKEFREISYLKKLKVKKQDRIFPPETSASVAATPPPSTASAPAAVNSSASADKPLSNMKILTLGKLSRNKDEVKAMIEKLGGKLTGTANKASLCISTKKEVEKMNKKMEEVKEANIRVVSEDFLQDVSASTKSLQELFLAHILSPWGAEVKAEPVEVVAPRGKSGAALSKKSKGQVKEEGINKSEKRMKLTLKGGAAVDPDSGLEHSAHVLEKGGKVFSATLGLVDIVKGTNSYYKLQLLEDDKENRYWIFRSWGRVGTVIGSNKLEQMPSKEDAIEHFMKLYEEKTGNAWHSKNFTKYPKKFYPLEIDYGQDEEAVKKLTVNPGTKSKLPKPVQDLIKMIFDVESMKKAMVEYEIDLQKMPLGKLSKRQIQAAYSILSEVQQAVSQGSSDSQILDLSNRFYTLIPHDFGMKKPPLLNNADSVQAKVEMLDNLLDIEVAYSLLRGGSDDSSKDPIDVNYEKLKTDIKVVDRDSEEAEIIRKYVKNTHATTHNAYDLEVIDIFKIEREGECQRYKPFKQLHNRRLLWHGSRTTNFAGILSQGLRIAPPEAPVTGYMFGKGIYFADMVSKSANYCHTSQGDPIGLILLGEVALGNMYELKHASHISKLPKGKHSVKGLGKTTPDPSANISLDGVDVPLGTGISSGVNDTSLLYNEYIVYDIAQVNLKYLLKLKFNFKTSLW
T1 sequence (P09874 788-1014 limits assumed): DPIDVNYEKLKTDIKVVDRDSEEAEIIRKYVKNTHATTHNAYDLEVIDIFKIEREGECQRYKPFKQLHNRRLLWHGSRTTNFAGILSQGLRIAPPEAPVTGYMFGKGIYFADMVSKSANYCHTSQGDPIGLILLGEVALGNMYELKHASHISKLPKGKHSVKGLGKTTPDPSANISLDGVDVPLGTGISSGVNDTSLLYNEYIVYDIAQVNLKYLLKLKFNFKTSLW

Row | pKd [1] | pIC50 (PARP) | Structure (SMILES) | PF50 (Jurkat cell line)
1 | 6.10 to 7.50 |  | O=C1Nc2cc(CN3CCC(c4ccc(Cl)cc4)CC3)cnc2N2CCC[C@@H]12 [Compound 3, (S)-3-((4-(4-chlorophenyl)piperidin-1-yl)methyl)-6a,7,8,9-tetrahydropyrido[3,2-e]pyrrolo[1,2-a]pyrazin-6(5H)-one] | >10
2 | > 7.50 | ≥ 7.90 | CCNC(=O)c1ccc(N2CCN(Cc3cnc4c(c3)NC(=O)[C@@H]3CCCN43)CC2)cc1 [Compound 10, (S)—N-ethyl-4-(4-((6-oxo-5,6,6a,7,8,9-hexahydropyrido[3,2-e]pyrrolo[1,2-a]pyrazin-3-yl)methyl)piperazin-1-yl)benzamide] | >5000
3 | 6.10 to 7.50 | ≤ 7.30 | C[C@H]1C(=O)Nc2cc(CN3CCC(c4ccc(Cl)cc4)CC3)cnc2N1C [Compound 53, (S)-7-((4-(4-chlorophenyl)piperidin-1-yl)methyl)-3,4-dimethyl-3,4-dihydropyrido[3,2-b]pyrazin-2(1H)-one] | ≧0
4 | ≤ 6.00 |  | C[C@H]1C(=O)Nc2cc(CN3CCC(c4ccccc4)CC3)cnc2N1C [Compound 54, (S)-3,4-dimethyl-7-((4-phenylpiperidin-1-yl)methyl)-3,4-dihydropyrido[3,2-b]pyrazin-2(1H)-one] | 
5 | ≤ 6.00 |  | C[C@H]1C(=O)Nc2cc(CN3CCN(c4cccc(Cl)c4)CC3)cnc2N1C [Compound 58, (S)-7-((4-(3-chlorophenyl)piperazin-1-yl)methyl)-3,4-dimethyl-3,4-dihydropyrido[3,2-b]pyrazin-2(1H)-one] | 
6 | > 7.50 |  | C[C@H]1C(=O)Nc2cc(CN3CCN(c4ccc(Cl)cc4)CC3)cnc2N1C [Compound 59, (S)-7-((4-(4-chlorophenyl)piperazin-1-yl)methyl)-3,4-dimethyl-3,4-dihydropyrido[3,2-b]pyrazin-2(1H)-one] | ≧0
7 | ≤ 6.00 |  | CC(C)N1c2ncc(CN3CCN(c4ccc(Cl)cc4)CC3)cc2NC(=O)[C@@H]1C [Compound 61, (S)-7-((4-(4-chlorophenyl)piperazin-1-yl)methyl)-4-isopropyl-3-methyl-3,4-dihydropyrido[3,2-b]pyrazin-2(1H)-one] | 
8 | ≤ 6.00 | 7.40 to 7.80 | O=C1Nc2cc(CN3CCN(c4ccc(Cl)cc4)CC3)cnc2N2CCCCC12 (centres unmarked) [Compound 66, 3-((4-(4-chlorophenyl)piperazin-1-yl)methyl)-7,8,9,10-tetrahydro-5H-dipyrido[1,2-a:3′,2′-e]pyrazin-6(6aH)-one] | >10
9 |  | ≥ 7.90 | CNC(=O)c1ccc(N2CCN(Cc3cnc4c(c3)NC(=O)[C@@H]3CCCN43)CC2)c(F)c1 [Compound 131, (S)-3-fluoro-N-methyl-4-(4-((6-oxo-5,6,6a,7,8,9-hexahydropyrido[3,2-e]pyrrolo[1,2-a]pyrazin-3-yl)methyl)piperazin-1-yl)benzamide] | >500
10 |  | ≥ 7.90 | O=C(NC1CC1)c1ccc(N2CCN(Cc3cnc4c(c3)NC(=O)[C@@H]3CCCN43)CC2)c(F)c1 [Compound 132, (S)—N-cyclopropyl-3-fluoro-4-(4-((6-oxo-5,6,6a,7,8,9-hexahydropyrido[3,2-e]pyrrolo[1,2-a]pyrazin-3-yl)methyl)piperazin-1-yl)benzamide] | >2000
11 |  | 7.40 to 7.80 | CC(C)NC(=O)c1ccc(N2CCN(Cc3cnc4c(c3)NC(=O)[C@@H]3CCCN43)CC2)c(F)c1 [Compound 133, (S)-3-fluoro-N-isopropyl-4-(4-((6-oxo-5,6,6a,7,8,9-hexahydropyrido[3,2-e]pyrrolo[1,2-a]pyrazin-3-yl)methyl)piperazin-1-yl)benzamide] | >2000
12 |  | 7.40 to 7.80 | O=C(NC1CC1)c1ccc(N2CCN(Cc3cnc4c(c3)NC(=O)[C@@H]3CCCN43)CC2)c(Cl)c1 [Compound 134, (S)-3-chloro-N-cyclopropyl-4-(4-((6-oxo-5,6,6a,7,8,9-hexahydropyrido[3,2-e]pyrrolo[1,2-a]pyrazin-3-yl)methyl)piperazin-1-yl)benzamide] | >5000
13 |  | 7.40 to 7.80 | CC(C)NC(=O)c1ccc(N2CCN(Cc3cnc4c(c3)NC(=O)[C@@H]3CCCN43)CC2)c(Cl)c1 [Compound 135, (S)-3-chloro-N-isopropyl-4-(4-((6-oxo-5,6,6a,7,8,9-hexahydropyrido[3,2-e]pyrrolo[1,2-a]pyrazin-3-yl)methyl)piperazin-1-yl)benzamide] | >5000
14 |  | ≥ 7.90 | CNC(=O)c1ccc(N2CCN(Cc3cnc4c(c3)NC(=O)[C@@H]3CCCN43)CC2)c(Cl)c1 [Compound 136, (S)-3-chloro-N-methyl-4-(4-((6-oxo-5,6,6a,7,8,9-hexahydropyrido[3,2-e]pyrrolo[1,2-a]pyrazin-3-yl)methyl)piperazin-1-yl)benzamide] | >5000
15 |  | ≥ 7.90 | CCNC(=O)c1ccc(N2CCN(Cc3cnc4c(c3)NC(=O)[C@@H]3CCCN43)CC2)c(C)c1 [Compound 137, (S)—N-ethyl-3-methyl-4-(4-((6-oxo-5,6,6a,7,8,9-hexahydropyrido[3,2-e]pyrrolo[1,2-a]pyrazin-3-yl)methyl)piperazin-1-yl)benzamide] | >5000
16 |  | ≥ 7.90 | CNC(=O)c1ccc(N2CCN(Cc3cnc4c(c3)NC(=O)[C@@H]3CCCN43)CC2)c(C)c1 [Compound 141, (S)—N,3-dimethyl-4-(4-((6-oxo-5,6,6a,7,8,9-hexahydropyrido[3,2-e]pyrrolo[1,2-a]pyrazin-3-yl)methyl)piperazin-1-yl)benzamide] | >500

Row | Structure (SMILES) | pKd [1] | pIC50 (PARP) | PF50 (Jurkat cell line)
17 | C[C@H]1C(=O)Nc2cc(CN3CC=C(c4ccc(Cl)cc4)CC3)cnc2N1C [Compound 52, (S)-7-((4-(4-chlorophenyl)-5,6-dihydropyridin-1(2H)-yl)methyl)-3,4-dimethyl-3,4-dihydropyrido[3,2-b]pyrazin-2(1H)-one] | > 7.50 |  | ≧0
18 | C[C@H]1C(=O)Nc2cc(CN3CC=C(c4ccc(F)cc4)CC3)cnc2N1C [Compound 56, (S)-7-((4-(4-fluorophenyl)-5,6-dihydropyridin-1(2H)-yl)methyl)-3,4-dimethyl-3,4-dihydropyrido[3,2-b]pyrazin-2(1H)-one] | > 7.50 |  | ≧0
19 | C[C@H]1C(=O)Nc2cc(CN3CC=C(c4ccccc4)CC3)cnc2N1C [Compound 57, (S)-3,4-dimethyl-7-((4-phenyl-5,6-dihydropyridin-1(2H)-yl)methyl)-3,4-dihydropyrido[3,2-b]pyrazin-2(1H)-one] | > 7.50 |  | ≧0
20 | CC(C)N1c2ncc(CN3CC=C(c4ccc(Cl)cc4)CC3)cc2NC(=O)[C@@H]1C [Compound 60, (S)-7-((4-(4-chlorophenyl)-5,6-dihydropyridin-1(2H)-yl)methyl)-4-isopropyl-3-methyl-3,4-dihydropyrido[3,2-b]pyrazin-2(1H)-one] | ≤ 6.00 |  | 
21 | CCN1c2ncc(CN3CC=C(c4ccc(Cl)cc4)CC3)cc2NC(=O)[C@@H]1C [Compound 63, (S)-7-((4-(4-chlorophenyl)-5,6-dihydropyridin-1(2H)-yl)methyl)-4-ethyl-3-methyl-3,4-dihydropyrido[3,2-b]pyrazin-2(1H)-one] | 6.10 to 7.50 |  | ≧0
22 | O=C1Nc2cc(CN3CC=C(c4ccc(Cl)cc4)CC3)cnc2N2CCCCC12 (centres unmarked) [Compound 65, 3-((4-(4-chlorophenyl)-5,6-dihydropyridin-1(2H)-yl)methyl)-7,8,9,10-tetrahydro-5H-dipyrido[1,2-a:3′,2′-e]pyrazin-6(6aH)-one] | ≤ 6.00 | ≥ 7.90 | >10

From US9187497B2, “Substituted pyrido[3,2-e]pyrrolo[1,2-a]pyrazines as inhibitors of poly(ADP-ribose)polymerase (PARP)” (Takeda Phamaceutical Company Limited, priority 2009, dated 2015)
